Here are results for five compounds from article PMC13289212, “HIVIL: A human in vitro inflammatory liver model recapitulates immune-associated drug effects with high predictivity” (NAM journal, 2025).

Series [1] deals with TNFα. Particulars: ref Shaw et al. 2010; Zou et al. 2009; Bekker et al. 2012; Gandhi et al. 2013; Heidari et al. 2019; cited from earlier work.
For series [2], the system named is HIVIL (iKCs co-cultured with iHeps). Kind of series: AlamarBlue cell viability in HIVIL. The settings on record: for IC50: Homo sapiens, 48 h, read-out: IC50: viability. The method, then: (§1) Stock solutions of drugs were prepared in dimethyl sulfoxide (DMSO) and dissolved in medium prior to use. […] For these two drugs, the highest DMSO concentration was 1 %. Supernatant was collected at 48 hr for measurement of cytokines, and remaining cells were subjected to viability assay prior to lysis for RNA extraction.
(The colour change of resazurin is a common sign of viable cells or microbes.)

The conditions of series [3]: Cammett et al. 2009, Mendes et al. 2014, cited from earlier work.
Series [4] has as its system IL-6. Kind of series: IL-6 production of iKC mono-culture. Format: cell-based, human. Particulars: result in words. The method, then:
(§2) Enzyme-linked immunosorbent assay (ELISA) for measurement of cytokines: Interleukin-6 (IL-6), interleukin-10 (IL-10) and tumor necrosis factor alpha (TNFα) levels in the media were measured using the corresponding human-based ELISA kits (Abcam, Cambridge, United Kingdom) according to manufacturer’s instructions. The cytokine production from dosed cells was normalized with the viability value from the same well. The normalized cytokine level upon drug treatments was further presented as percentage of DMSO+LPS. Normalization to viability per well ensures that any changes in cytokines are not due to changes in cell numbers upon drug treatment and normalization to DMSO+LPS allows better comparison between different batches of experiments. This normalization approach has been used in previous studies (Rose et al. 2016).

Series [5] concerns IL-6. Kind of series: IL-6 ELISA in HIVIL (iKCs co-cultured with iHeps, LPS, 48 hr). Format: cell-based, human. Particulars: HIVIL; for IC50: Homo sapiens, LPS, 48 hr; for IL-6 response: result in words.
Description: (§3) Human iPSC cell line iPS (IMR90)-4 was purchased from WiCell Research Institute (Madison, WI), and maintained with a feeder-free method according to the instruction from […] Technologies (Vancouver, BC, Canada). The protocol of differentiation towards iKCs and iHeps as described previously with slight modification ([Tasnim et al., 2019]; [Cai et al., 2012]), respectively. […] More details are provided in Supplementary Methods. After differentiation, iKCs was harvested using 0.05 % trypsin-EDTA (Gibco, Waltham, Massachusetts, USA), while iHeps were dissociated with TrypLE^TM (Gibco). iHep suspension was further filtered through a 40 µm cell strainer to remove extracellular matrix clumps. Cell suspension was centrifuged at 1000 rpm for 5 min. For co-culture set up, tissue culture plates were coated with Rat tail collagen I (Gibco) diluted 100-fold in 0.02 N acetic acid, and incubated at 37 °C for 1 h and washed 3 times with PBS. According to the protocol optimized by [Tasnim et al. (2019)], iKCs was firstly seeded at a density of 14,000 per well on 96-well plate with Advanced DMEM (plus supplements) containing 5 % FBS. On the following day, iHeps were added at a density of 35,000 per well in Williams’ Medium E (plus supplements) (iHep: iKCs ratio = 2.5: 1). This reflects the physiological ratio of these cells in vivo under inflammatory conditions ([Tasnim et al., 2021]). Fresh media containing drugs was applied to co-cultures the next day. 50,000 cells were seeded to establish iHeps monoculture. THP-1 cells were kindly obtained from Dr. Eliza Fong and cultured as described by [Zeng et al. (2015)]. Details provided in Supplementary Methods.
as §1
(§4) Enzyme-linked immunosorbent assay (ELISA) for measurement of cytokines: Interleukin-6 (IL-6), interleukin-10 (IL-10) and tumor necrosis factor alpha (TNFα) levels in the media were measured using the corresponding human-based ELISA kits (Abcam, Cambridge, United Kingdom) according to manufacturer’s instructions. The cytokine production from dosed cells was normalized with the viability value from the same well. The normalized cytokine level upon drug treatments was further presented as percentage of DMSO+LPS. […] This normalization approach has been used in previous studies (Rose et al. 2016).
(In general: In an ELISA, binding on a coated surface is turned into a signal by an enzyme label.)

Series [6] has as its system iKCs mono-culture. The experiment in a line: Cell viability of iKCs mono-culture. On the set-up: dose or concentration left out as unconfirmed.
Description: (§5) Cell viability assays: Cell viability was examined with AlamarBlue^TM cell viability assay (Thermo Fisher Scientific Inc.) according to manufacturer’s instructions. Briefly, cells were exposed to AlamarBlue^TM working solution, which was diluted 10-fold using PBS containing 2 mg/mL of glucose, for 1 hour. Color change in the solution was measured using fluorescence (Ex: 530nm, Em: 590nm) in Tecan Microplate Reader M1000 PRO. The viability of dosed cells was presented as percentage of the corresponding vehicle control.
The conditions of series [7]: binary classification by human hepatotoxicity; ref Thakkar et al. 2020; cited from earlier work.
For series [8], the system named is TNFα. Kind of series: TNFα ELISA in HIVIL (iKCs co-cultured with iHeps, LPS, 48 hr). Format: cell-based, human.
Description: as §3, §1, §4

The conditions of series [9]: FDA-labeling information; ref Chen et al. 2016; cited from earlier work.
The test system of series [10] is IL-6. Set-up: method as in ref Hassan et al. 2016; Giustarini et al. 2019; Higuchi et al. 2012; Dik et al. 2018. The settings on record: ref Hassan et al. 2016; Giustarini et al. 2019; Higuchi et al. 2012; Dik et al. 2018; cited from earlier work.
For a further series, the system named is NF-κB. On the set-up: method as in Wahl et al. 1998. Particulars: ref Wahl et al. 1998; cited from earlier work.
In series [11] the test system is IL-6. On the set-up: method as in Steuerwald et al. 2013; Mahdy et al. 2002; Kang et al. 2001. Particulars: ref Steuerwald et al. 2013; Mahdy et al. 2002; Kang et al. 2001; cited from earlier work.
For series [12], the system named is iKCs mono-culture.
Description: as §5
Another series deals with cytokines. Set-up: method as in ref Ganey et al. 2004; Honarmand et al. 2012; Manna and Aggarwal 1999; Yao et al. 2004. Particulars: ref Ganey et al. 2004; Honarmand et al. 2012; Manna and Aggarwal 1999; Yao et al. 2004; cited from earlier work.
The next series concerns iHeps. The experiment in a line: RNA-Seq of iHeps from mono-culture and HIVIL. Format: cell-based, human. Particulars: regardless of culture conditions, result in words. An excerpt: Subsequent analyses compared gene fold-changes of treated samples against their respective vehicle controls: "m" and "c" indicate mono- and co-culture, and "–" and "+" represent the absence or presence of LPS. […] However, this is only applicable for co-cultures where downstream effects can be traced back to cytokine changes, and not in monocultures where significant upstream cytokine changes are not observed.
RNA extraction was done using TRIzol and analyzed on a Tapestation 4200 to determine RNA Integrity Number (RIN). Only samples with RIN > 8 were sequenced. Illumina Stranded mRNA multiplexing was done with unique 96 dual indices, and all samples sequenced on the same lane of NovaSeq 6000 S4 flowcell. Data normalization was performed using DESeq2 v1.32.0 ([Love et al., 2014]) on the R programming language v4.1.0 ([R Core Team, 2021]; [R Team, 2021]). Gene enrichment analysis was done with fgsea v1.18 ([Korotkevich et al., 2021]) with gene sets downloaded from MSigDB and KEGG pathway visualization done via pathview v1.32 ([Kanehisa et al., 2021]; [Luo and Brouwer, 2013]). Other plots were produced using ggplot2 v3.3.5 and scatterplot3d v0.3-41 ([Ligges and Maechler, 2003]). The RNA-Seq dataset has been deposited in NCBI under accession number GSE189320.
RNA seq and analysis: After 48 hr of drug treatment, iHeps cultured in mono-culture and HIVIL were both subjected to TrypLE^TM dissociation, and subsequently sorted with magnetic separation with the CD163 Microbead kit (Miltenyi Biotec, Bergisch Gladbach, Germany) to obtain only iHeps. Flow-through was collected, pelleted down and snap-frozen in liquid nitrogen, before storage at -80°C. Lysates were sent to the Genome Research Informatics and Data Science platform (Agency for Science, Technology and Research, Singapore). RNA extraction was done using TRIzol and analyzed on a Tapestation 4200 to determine RNA Integrity Number (RIN). All sequenced samples included for further analysis had RIN > 8. Illumina Stranded mRNA multiplexing was done with unique 96 dual indices, and all samples sequenced on the same lane of NovaSeq 6000 S4 flowcell. Sequenced reads were trimmed for adaptor sequence using Trim Galore v0.6.4, then aligned to human genome build GRCh38 using STAR_2.6.1d. Aligned reads are summarized into count matrices using featureCounts v1.6.4 with the gene annotation file from GENCODE v37.
Data normalization was performed using DESeq2 v1.32.0 (Love et al. 2014) on the R programming language v4.1.0 (Core Team 2021; Team 2021). Gene enrichment analysis was done with fgsea v1.18 (Korotkevich et al. 2021) with gene sets downloaded from MSigDB and KEGG pathway visualization done via pathview v1.32 (Kanehisa et al. 2021; Luo and Brouwer 2013). Other plots were produced using ggplot2 v3.3.5 and scatterplot3d v0.3-41 (Ligges and Maechler 2003). The RNA-Seq dataset has been deposited in NCBI under accession number GSE189320.

For series [13], the system named is IL-6. The experiment in a line: IL-6 ELISA in iPSC(F4)-derived HIVIL. The settings on record: result in words. The format is cell-based, human. The method, then:
as §2

The subject of the next series is iPSC(F4)-derived HIVIL. The experiment in a line: Cell viability in iPSC(F4)-derived HIVIL. The format is cell-based, human. The settings on record: result in words.
Where [14] appears, read: ref in each cell: Ademisoye et al. 2018, Xu et al. 2008, Agabeyoglu and Incecayir 2009, Rojanasthien et al. 2007, Reunanen et al. 1992, Li et al. 2002, Hong-mei et al. 2013, Bareggi et al. 1987, Jiang et al. 2008.

Where two headings read alike, the source gives them in different places.

Consider `CN(C)CCCN1c2ccccc2Sc2ccc(Cl)cc21` [CPZ, Chlorpromazine], for which the “Reported in-vivo (murine) responses: TNFα” value in the series with TNFα [1] was “TNFα↑ (Gandhi et al. 2013)”. The IC50 in series [2] came to 34.4 µM; in the series on IL-6 [5], 12.9 µM. For the same compound, the Cmax in series [3] (setting [14]) and in series [3] (ref in each cell: Xu et al. 2008) was 0.8 µM in each case. In the series on IL-6 [4], the “IL-6 / cytokine production in iKC mono-culture” value is given as “higher than that in the HIVIL model”. Also, in the series with IL-6 [5], the “group by drug-dependent IL-6 production” value is “dose-dependent inhibition”. Besides, in the series with iKCs mono-culture [6], the “decrease in viability in iKCs” value is listed as 50%. Also, the DILIst in series [7] was 1. Moreover, in the series with TNFα [8], the “dose at which TNFα induction was observed” value is reported as 25 µM. Moreover, in series [9], the DILIrank entry was “less”.

Take `O=C(O)c1cc(/N=N/c2ccc(S(=O)(=O)Nc3ccccn3)cc2)ccc1O` [SSZ, sulfasalazine]: the “Reported in-vivo (murine) responses: IL-6” value in the series with IL-6 [10] is reported as “IL-6↓ (Dik et al. 2018)”. Moreover, in series [3] (setting [14]), the Cmax was 17.6 µM. Also, in the series on IL-6 [5], the “group by drug-dependent IL-6 production” value is “no dose-dependent changes” and the IL-6 response result was “no change”. Further, the “Reported human responses: NF-κB” value in the series on NF-κB was “NF-κB inhibitor (Wahl et al. 1998)”.

As for `CC1=C(CC(=O)O)c2cc(F)ccc2/C1=C\c1ccc([S+](C)[O-])cc1` (stereo not drawn) [SLD, sulindac], the “Reported in-vivo (murine) responses: TNFα” value in the series with TNFα [1] was “TNFα↑ (Zou et al. 2009)”. Moreover, the IC50 in series [2] is 2060 µM. Moreover, in the series on IL-6 [4], the “IL-6 / cytokine production in iKC mono-culture” value was “abolished”. In the series on IL-6 [5], the “group by drug-dependent IL-6 production” value is “dose-dependent inhibition”; the “reduction of IL-6” value came to 50%; the midpoint of inhibition, the IC50, lay at 381 µM. The “Reported human responses: IL-6” value with IL-6 [11] is on record as “mechanistic IL-6↓ (Kang et al. 2001)”. Moreover, the DILIst in series [7] is on record as 1. Also, in the series with iKCs mono-culture [12], the “toxicity to iKCs mono-culture compared to iHeps mono-culture and HIVIL” value is reported as “substantially higher toxicity”. Besides, the “dose at which TNFα induction was observed” value with TNFα [8] is less than 200 µM. Also, the DILIrank result in [9] is “most”.

With `Cc1oncc1C(=O)Nc1ccc(C(F)(F)F)cc1` [LFM, leflunomide], the Cmax in [3] (setting [14]) was 24.8 µM. In the series on IL-6 [5], the “group by drug-dependent IL-6 production” value was “dose-dependent induction” and the “increase in IL-6” value worked out at 3.1 fold. In the series on cytokines, the “Reported in-vivo (murine) responses: cytokines” value was “cytokines↓ via NF-kB (Manna and Aggarwal 1999; Yao et al. 2004)”. For the same compound, in [7], the DILIst is 1. For the same compound, the DILIrank result in [9] is on record as “most”.

Regarding `C[C@H]1COc2c(N3CCN(C)CC3)c(F)cc3c(=O)c(C(=O)O)cn1c23` [LVX, levofloxacin], the “change in cell viability” value in series [2] (HIVIL, result in words) is “did not cause any change”. In series [2] (comparison of mono-cultures and co-culture), the “viability profiles among iHeps, iKCs and HIVIL” value is given as “similar”. Also, in the series on IL-6 [5], the “group by drug-dependent IL-6 production” value is reported as “no dose-dependent changes” and the IL-6 response entry is reported as “did not cause any change”. In addition, the “IL-6 transcription in iHeps” value in the series on iHeps is recorded as “remained unchanged”. For the same compound, the IL-6 production result in the series with IL-6 [13] is on record as “did not influence”. Moreover, the DILIst in series [7] is reported as 1. In addition, the DILIrank result in [9] is listed as “most”. Also, the cell viability entry in the series on iPSC(F4)-derived HIVIL is given as “did not influence”.

Usually IC50 stands for the point on the concentration scale where inhibition reaches its midpoint. The term Cmax denotes the maximum level reached in the sampled fluid or tissue.
